The numbers were not newly measured in US7662581B1, “Eg5 co-crystals” (Novartis Vaccines and Diagnostics, Inc., priority 2003, dated 2010), which cites them from elsewhere.

The structures appear in SMILES notation.

In data set [1] the test system is DAN-G pancreatic carcinoma cells.
The next data set deals with HsEg5. The conditions noted are these: protein level.

Turning to `CC1=C(/C=C/C(C)=C/C=C/C(C)=C/C(=O)O)C(C)(C)CCC1` [ATRA, all trans-retinoic acid], in data set [1], the growth inhibition entry is on record as “significant growth inhibition”. Moreover, the HsEg5 expression entry in the data set with HsEg5 is “reduces HsEg5 expression on protein level”.
